Assay [1] deals with T1, recombinant human prolyl oligopeptidase (PREP) (Homo sapiens, UniProt P48147).
T1 sequence (P48147 1-710): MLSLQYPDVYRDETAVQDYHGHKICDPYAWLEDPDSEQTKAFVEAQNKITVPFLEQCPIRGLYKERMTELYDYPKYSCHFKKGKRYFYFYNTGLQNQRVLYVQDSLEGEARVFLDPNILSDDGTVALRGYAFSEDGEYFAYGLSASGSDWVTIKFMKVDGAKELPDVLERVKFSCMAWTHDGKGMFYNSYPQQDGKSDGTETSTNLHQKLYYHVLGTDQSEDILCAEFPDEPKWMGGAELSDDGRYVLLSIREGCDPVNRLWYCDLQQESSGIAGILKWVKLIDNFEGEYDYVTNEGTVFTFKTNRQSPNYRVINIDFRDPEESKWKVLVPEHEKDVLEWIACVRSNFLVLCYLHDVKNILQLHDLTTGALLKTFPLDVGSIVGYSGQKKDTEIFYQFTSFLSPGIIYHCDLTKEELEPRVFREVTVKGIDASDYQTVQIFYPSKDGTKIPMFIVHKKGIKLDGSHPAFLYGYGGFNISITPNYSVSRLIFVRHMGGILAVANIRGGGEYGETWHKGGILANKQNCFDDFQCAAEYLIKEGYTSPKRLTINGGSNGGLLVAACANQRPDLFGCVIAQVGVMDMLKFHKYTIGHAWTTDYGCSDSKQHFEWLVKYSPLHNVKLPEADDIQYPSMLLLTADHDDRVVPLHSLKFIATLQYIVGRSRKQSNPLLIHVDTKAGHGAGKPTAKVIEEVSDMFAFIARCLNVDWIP
The experiment in a line: Selective assay, protease inhibition (PREP). Format: biochemical. The note with it: substrate Z-Gly-Pro-AMC. As to the method:
The specificity of the synthesized compounds against recombinant human dipeptidyl peptidase IV (DPPIV), fibroblast activation protein (FAP), or prolyl oligopeptidase (PREP) was expressed by their half-maximal inhibitory concentration (IC50) against the proteases.
1) The synthesized compound was dissolved in DMSO to a final concentration of 100 mM.
c) For PREP assay: The test compound was diluted to a 1 mM solution using a 140 mM NaCl buffer at pH 8.0.
2) The prepared 1 mM test compound solution was serially diluted (1:10) into a row of a 96-well plate using the corresponding buffer mentioned above.
3) The substrate was prepared as a DMSO stock solution (FAP and PREP: 2.5 mM Z-Gly-Pro-AMC (VWR, Cat. No. I-1145.0050BA) in DMSO; DPPIV: 100 mM Gly-Pro-AMC (VWR, Cat. No. 100042-646) in DMSO), and subsequently the substrate stock solution was diluted 20-fold using the corresponding buffer mentioned above.
4) The enzyme was diluted into the appropriate assay buffer. The final concentrations of DPPIV, FAP, and PREP were […], respectively. To each required well in columns 2-10, 180 μL was added separately. Column 1 (A, B, C) was prepared with 200 μL of the appropriate assay buffer as a control. Column 1 (D, E, F, G, H) was prepared using 20 μL of appropriate assay buffer and 180 μL of enzyme as an inhibitor-free control. […]
7) Fluorescence was measured at λex: 380, λem: 460. […]

The next assay concerns the target T2, FAP protein (Homo sapiens, UniProt Q12884).
T2 construct: purchased Sinobiological
T2 sequence (Q12884 1-760): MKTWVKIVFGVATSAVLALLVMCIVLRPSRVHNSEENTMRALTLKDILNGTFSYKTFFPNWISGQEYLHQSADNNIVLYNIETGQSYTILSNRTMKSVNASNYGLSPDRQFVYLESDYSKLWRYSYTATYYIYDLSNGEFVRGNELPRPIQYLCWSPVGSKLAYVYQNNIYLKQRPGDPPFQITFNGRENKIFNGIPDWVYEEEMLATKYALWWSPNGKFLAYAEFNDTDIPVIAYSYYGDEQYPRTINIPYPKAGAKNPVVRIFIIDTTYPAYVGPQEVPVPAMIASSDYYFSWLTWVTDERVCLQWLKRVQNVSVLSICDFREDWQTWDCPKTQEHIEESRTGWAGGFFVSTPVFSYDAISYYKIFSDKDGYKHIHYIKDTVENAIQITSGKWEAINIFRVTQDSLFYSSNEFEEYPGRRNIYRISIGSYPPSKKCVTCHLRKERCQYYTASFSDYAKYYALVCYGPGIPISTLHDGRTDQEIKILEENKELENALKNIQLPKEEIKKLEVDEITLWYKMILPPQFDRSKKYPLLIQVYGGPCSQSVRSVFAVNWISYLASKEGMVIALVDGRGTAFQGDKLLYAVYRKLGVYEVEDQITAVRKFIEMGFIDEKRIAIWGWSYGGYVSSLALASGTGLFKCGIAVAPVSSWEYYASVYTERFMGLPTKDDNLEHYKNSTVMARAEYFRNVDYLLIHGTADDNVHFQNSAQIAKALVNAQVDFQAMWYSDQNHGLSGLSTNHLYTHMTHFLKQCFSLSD
The experiment in a line: Biacore test of ligand binding to FAP protein. The note with it: FAP protein on SA chip, 15° C., 1:1 binding model. As to the method: The Biacore 8K (Cytiva) instrument was used to detect ligand binding of the FAP protein (Sinobiological). The FAP protein was captured on the SA chip. Before ligand immobilization (flow paths 1 and 2, flow rate of 10 μL/min), the FAP protein (10 μg/mL, flow rate of 5 μL/min, injection time of 600 s) was immobilized on flow path 2 using running buffer, and the sensor surface was conditioned with three consecutive injections of 1 M NaCl in 50 mM NaOH. After each ligand injection, additional washing was carried out with isopropanol in 1 M NaCl and 50 mM NaOH (flow paths 1 and 2, flow rate of 10 μL/min, injection time of 60 s).
The test compounds were dissolved in 100% dimethyl sulfoxide and diluted to 10 mM, then further diluted in the assay buffer (PBS, pH 7.4, 1 mM TCEP ([…]), 0.05% P20, 2% dimethyl sulfoxide) to appropriate maximum concentrations. The analyte was run under the following conditions: analysis temperature=15° C., analysis step=all set to LMW kinetics; cycle type=single cycle (90 s contact time, 1800 s dissociation time, 30 μL/min flow rate, flow channels 1, 2); flow channel detection=2-1). Data evaluation was performed using Biacore Insight Evaluation Software, and the data were fitted to a 1:1 binding model.
The Biacore results are shown in Table 1: pKD=−Log KD, where KD is the binding affinity of the compound to the FAP protein as measured by Biacore. The binding affinity is expressed by KD (M)=Kd(1/s)/Ka(1/Ms). Where A: pKD>8, B: 7<pKD<8, C: 6<pKD<7, D: pKD<6.

This is an account of results in patent publication US20260226049A1, “NITROGEN-CONTAINING HETEROCYCLIC COMPOUND, PREPARATION METHOD THEREFOR, AND USE THEREOF” (BIVISION PHARMACEUTICALS, INC, priority 2023, published 2026).

Usually IC50 stands for the concentration needed to halve the response being measured. By Kd is commonly meant the concentration at which binding is half-saturated.

In the case of `N#C[C@@H]1CC(F)(F)CN1C(=O)CNC(=O)c1cccc2c1CCN(C(=O)CCC(=O)NCCNC(=O)CCC(C(=O)O)N1CCN(CC(=O)O)CCN(CC(=O)O)CCN(CC(=O)O)CC1)C2` (some centres unmarked) [JHH5], the IC50 in assay [1] was more than 1 µM. The molecule also gave a dissociation constant (Kd) on FAP protein of less than 0.01 µM.
